Measured values from article PMC7982320 (Pharmacology Research & Perspectives, 2021).
Entries after “also recorded” stand apart in the source; their conditions may differ.

Assays:
Type in all cases: in vitro ADME
human OATP1B1 = biological target: T1, human OATP1B1 (Homo sapiens, UniProt Q9Y6L6); assay: Uptake transporter substrate assay; details: OATP1B1 UPT; for Maximum fold accumulation over control: maximum seen at 2.5 µM and 20 min, n = 3
T1 sequence (Q9Y6L6 1-691): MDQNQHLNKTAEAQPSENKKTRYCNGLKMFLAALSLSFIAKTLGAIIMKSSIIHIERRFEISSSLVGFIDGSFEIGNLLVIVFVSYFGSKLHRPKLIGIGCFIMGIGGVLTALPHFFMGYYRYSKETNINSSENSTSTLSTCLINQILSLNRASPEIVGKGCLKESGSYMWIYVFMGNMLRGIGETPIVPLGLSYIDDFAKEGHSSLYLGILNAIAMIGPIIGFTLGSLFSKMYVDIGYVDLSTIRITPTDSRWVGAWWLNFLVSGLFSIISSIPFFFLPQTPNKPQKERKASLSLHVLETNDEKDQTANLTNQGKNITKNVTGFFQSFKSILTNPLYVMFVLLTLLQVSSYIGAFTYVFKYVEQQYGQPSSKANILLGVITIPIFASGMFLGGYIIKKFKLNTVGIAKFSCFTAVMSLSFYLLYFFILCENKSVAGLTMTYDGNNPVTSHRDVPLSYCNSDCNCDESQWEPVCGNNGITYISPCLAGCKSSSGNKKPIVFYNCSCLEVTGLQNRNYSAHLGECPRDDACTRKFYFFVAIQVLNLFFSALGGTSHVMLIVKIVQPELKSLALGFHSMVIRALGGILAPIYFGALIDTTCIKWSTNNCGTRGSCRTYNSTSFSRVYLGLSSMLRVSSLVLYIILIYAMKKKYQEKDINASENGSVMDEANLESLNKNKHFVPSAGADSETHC

human OCT1 = human OCT1 (Homo sapiens, UniProt O15245); assay: Transporter inhibition, uptake assay
Chain of human OCT1 (O15245 whole entry): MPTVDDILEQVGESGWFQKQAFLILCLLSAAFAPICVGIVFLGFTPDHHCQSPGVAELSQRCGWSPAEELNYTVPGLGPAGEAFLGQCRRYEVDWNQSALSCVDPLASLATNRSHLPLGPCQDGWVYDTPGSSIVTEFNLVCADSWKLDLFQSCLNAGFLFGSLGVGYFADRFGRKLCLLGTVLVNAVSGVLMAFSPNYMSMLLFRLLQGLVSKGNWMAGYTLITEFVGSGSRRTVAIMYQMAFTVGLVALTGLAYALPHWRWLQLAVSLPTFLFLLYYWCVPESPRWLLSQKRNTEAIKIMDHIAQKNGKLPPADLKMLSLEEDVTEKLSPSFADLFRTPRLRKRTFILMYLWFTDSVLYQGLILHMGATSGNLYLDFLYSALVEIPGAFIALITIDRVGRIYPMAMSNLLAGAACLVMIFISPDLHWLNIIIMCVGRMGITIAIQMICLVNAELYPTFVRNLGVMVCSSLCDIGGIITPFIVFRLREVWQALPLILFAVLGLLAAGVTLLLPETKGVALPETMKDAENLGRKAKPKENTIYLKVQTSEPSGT

human OAT3 = biological target: T2, human OAT3 (Homo sapiens, UniProt Q8TCC7); assay: Transporter inhibition, uptake assay
T2 sequence (Q8TCC7 1-542): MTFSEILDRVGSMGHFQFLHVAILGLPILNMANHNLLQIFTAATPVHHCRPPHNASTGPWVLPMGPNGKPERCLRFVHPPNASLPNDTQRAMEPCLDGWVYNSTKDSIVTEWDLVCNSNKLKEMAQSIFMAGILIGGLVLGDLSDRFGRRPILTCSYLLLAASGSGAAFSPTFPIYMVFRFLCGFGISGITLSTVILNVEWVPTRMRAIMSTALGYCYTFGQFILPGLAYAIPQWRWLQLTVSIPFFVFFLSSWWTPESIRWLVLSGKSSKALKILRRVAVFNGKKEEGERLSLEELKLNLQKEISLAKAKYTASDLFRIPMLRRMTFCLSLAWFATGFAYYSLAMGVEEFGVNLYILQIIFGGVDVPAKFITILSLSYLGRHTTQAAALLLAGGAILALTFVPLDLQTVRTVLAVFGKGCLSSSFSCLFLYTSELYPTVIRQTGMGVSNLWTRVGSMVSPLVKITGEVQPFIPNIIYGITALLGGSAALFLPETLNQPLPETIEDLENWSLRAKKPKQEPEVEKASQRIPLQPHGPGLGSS

human MATE1 = biological target: T3, human MATE1 (Homo sapiens, UniProt Q96FL8); assay: Uptake transporter substrate assay; details: MATE1 UPT; for Maximum fold accumulation over control: maximum seen at 1 µM and 2 min, n = 3
T3 sequence (Q96FL8 1-570): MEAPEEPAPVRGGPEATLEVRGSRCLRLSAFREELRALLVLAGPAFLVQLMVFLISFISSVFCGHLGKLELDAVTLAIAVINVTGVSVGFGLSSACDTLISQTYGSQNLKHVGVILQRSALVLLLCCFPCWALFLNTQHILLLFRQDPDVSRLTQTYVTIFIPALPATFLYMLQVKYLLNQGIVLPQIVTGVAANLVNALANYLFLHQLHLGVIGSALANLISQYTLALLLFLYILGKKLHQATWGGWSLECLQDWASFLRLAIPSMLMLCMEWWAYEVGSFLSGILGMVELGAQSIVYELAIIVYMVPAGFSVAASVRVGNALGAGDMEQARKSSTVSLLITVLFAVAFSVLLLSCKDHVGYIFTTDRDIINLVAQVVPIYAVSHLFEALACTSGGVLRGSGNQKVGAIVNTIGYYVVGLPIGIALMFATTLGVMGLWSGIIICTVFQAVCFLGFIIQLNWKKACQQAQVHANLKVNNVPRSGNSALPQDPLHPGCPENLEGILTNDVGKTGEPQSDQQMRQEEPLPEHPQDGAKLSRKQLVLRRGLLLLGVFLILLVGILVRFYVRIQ

human OATP1B3 = biological target: T4, human OATP1B3 (Homo sapiens, UniProt Q9NPD5); assay: Uptake transporter substrate assay; details: OATP1B3 UPT; for Maximum fold accumulation over control: maximum seen at 1 µM and 20 min, n = 3
T4 sequence (Q9NPD5 1-702): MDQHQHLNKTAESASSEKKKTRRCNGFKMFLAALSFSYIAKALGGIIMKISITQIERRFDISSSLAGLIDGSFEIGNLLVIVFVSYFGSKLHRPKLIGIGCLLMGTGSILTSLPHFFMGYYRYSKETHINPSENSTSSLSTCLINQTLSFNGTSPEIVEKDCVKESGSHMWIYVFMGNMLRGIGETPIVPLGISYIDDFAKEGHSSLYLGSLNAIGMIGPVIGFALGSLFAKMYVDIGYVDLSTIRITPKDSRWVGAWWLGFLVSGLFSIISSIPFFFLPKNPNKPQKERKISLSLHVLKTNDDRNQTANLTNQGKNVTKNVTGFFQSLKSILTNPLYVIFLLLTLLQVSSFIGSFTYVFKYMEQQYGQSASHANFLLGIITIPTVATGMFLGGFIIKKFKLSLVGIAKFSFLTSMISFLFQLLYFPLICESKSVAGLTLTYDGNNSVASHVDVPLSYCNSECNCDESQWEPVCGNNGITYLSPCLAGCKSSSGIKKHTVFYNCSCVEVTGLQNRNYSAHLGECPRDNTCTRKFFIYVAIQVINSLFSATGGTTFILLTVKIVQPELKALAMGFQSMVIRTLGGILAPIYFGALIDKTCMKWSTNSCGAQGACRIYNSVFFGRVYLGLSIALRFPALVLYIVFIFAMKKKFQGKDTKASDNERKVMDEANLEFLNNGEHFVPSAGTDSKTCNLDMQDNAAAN

[1] = listed as 6β‐hydroxy‐21‐desacetyl deflazacort

Compound: CC1=N[C@]2(C(=O)CO)[C@@H](C[C@H]3[C@@H]4C[C@@H](O)C5=CC(=O)C=C[C@]5(C)[C@H]4[C@@H](O)C[C@@]32C)O1 [6β‐OH‐21‐desDFZ, 6β‐Hydroxy‐21‐desacetyl deflazacort]
- Substrate potential (human OATP1B1): not a substrate
- Substrate potential (human OATP1B1; [1]): No
- Maximum fold accumulation over control (human OATP1B1): 1.02 at 2.5 µM and 20 min fold
- inhibitory interaction with transporter (human OCT1; OCT1, up to 50 µM): no inhibitory interaction
- Maximum inhibition at 50 µM (human OCT1; OCT1 UPT, n = 3): 23 % of control
- inhibitory interaction with transporter (human OAT3; OAT3, up to 50 µM): did not show interaction; also recorded: no inhibitory interaction
- Maximum inhibition at 50 µM (human OAT3; OAT3 UPT, n = 3): <20 % of control
- Substrate potential (human MATE1): not a substrate
- Substrate potential (human MATE1; [1]): No
- Maximum fold accumulation over control (human MATE1): 1.18 at 1 µM and 2 min fold
- Substrate potential (human OATP1B3): not a substrate
- Substrate potential (human OATP1B3; [1]): No
- Maximum fold accumulation over control (human OATP1B3): 1.47 at 1 µM and 20 min fold

Compound: [2’-^14C]-6β-hydroxy-21-desacetyl-deflazacort [^14C‐6β‐OH‐21‐desDFZ]
- Maximum fold accumulation over control (human OATP1B1): < 2 fold
- Maximum fold accumulation over control (human MATE1): < 2 fold
- Maximum fold accumulation over control (human OATP1B3): < 2 fold
